For one experiment, the system named is P. aeruginosa ZEM9A. In kind it is cell-based, Pseudomonas aeruginosa. As for the experimental part:
(§1) Bicyclic and linear peptides cytotoxicity was assayed against P. aeruginosa PAO1, P. aeruginosa ZEM-1A, P. aeruginosa ZEM9A, K. pneumoniae Oxa-48, E. coli W3110, A. baumannii BAL225, S. aureus Newman, S. aureus COL (clinical isolate of MRSA) , B. Subtilis BR151.
(§2) To determine the Minimal Inhibitory Concentration (MIC), Broth Microdilution method was used . 2 A colony of bacteria from glycerol stock was grown in LB medium overnight at 37 °C and 180 rpm shaking. The compounds were prepared as stock solutions of 8 mg/mL in sterilized milliQ deionized water, added to the first well of 96 -well sterile, polypropylene round bottom microtiter plates (TPP, untreated) and diluted serially by ½. The concentration of the bacteria was quantified by measuring absorbance at 600 nm and diluted to an OD 600 of 0.022 in MH medium. The sample solutions (150 µL) were mixed with 4 µL diluted bacterial suspension with a final inoculation of about 5×10^5 CFU.
(§3) For each test, two columns of the plate were kept for sterility control (MH medium only), growth control (MH medium with bacterial inoculum, no compound). The positive control, Polymyxin B (starting with a concentration of 64 µg/mL) in MH medium with bacterial inoculums, was introduced in the two first lines of the plate. The plates were incubated at 37 °C for ~18 hours under static conditions. 15 μL of 3-(4,5-dimethylthiazol-2-yl)-2,5-diphenyltetrazolium bromide (MTT)3 (1 mg/mL in sterilized milliQ deionized water) were added to each well and the plates were incubated for 20-30 minutes at room temperature. The minimal inhibitory concentration (MIC) was defined as the lowest concentration of the dendrimer that inhibits the visible growth of the tested bacteria (yellow) with the unaided eye.

For the next experiment, the system named is P. aeruginosa PAO1. In kind it is cell-based, Pseudomonas aeruginosa. On the procedure:
as §1, §2, §3

The next experiment concerns P. aeruginosa ZEM-1A. In kind it is cell-based, Pseudomonas aeruginosa. On the procedure: as §1, §2, §3
Experiment [1] can be described thus: Lipid vesicle leakage assay, 5(6)-carboxyfluorescein release. Conditions: 10 μg mL^−1 compound, leakage at 250 s; 10 mM TRIS, 107 mM NaCl, pH 7.4, 25 °C; carboxyfluorescein fluorescence, Triton X-100 = full release. As for the experimental part: 4 Lipid Vesicle Leakage assays
5(6)-carboxyfluorescein (CF) was purchased from Sigma. Egg Yolk Phosphatidylcholine (EYPC),
Egg Yolk Phosphatidylglycerol (EYPG) and a Mini-Extruder were purchased from Avanti Polar
Lipids. Egg PC or Egg PG thin lipid layers were prepared by evaporating a solution of 100 mg EYPC
or EYPG in 4 mL MeOH/CHCl3 (1:1) on a rotary evaporator at room temperature and then dried in
vacuo overnight. The resulting film was then hydrated with 4 mL CF buffer (50 mM CF, 10 mM
TRIS, 107 mM NaCl, pH 7.4) for 30 min, subjected to freeze-thaw cycles (7×) and extrusion (15×)
through a polycarbonate membrane (pore size 100 nm). Extra vesicular components were removed
by gel filtration (Sephadex G-50) with 10 mM TRIS, 107 mM NaCl, pH 7.4 buffer. Final conditions:
~ 2.5 mM PC or PG; inside: 50 mM CF, 10 mM TRIS, 10 mM NaCl, pH 7.4 buffer; outside: 10 mM
TRIS, 107 mM NaCl, pH 7.4. PC or PG stock solutions (37.5 µL) were diluted to 3000 µL with a
buffer (10 mM TRIS, 107 mM NaCl, pH 7.4) in a thermostated fluorescence cuvette (25 °C) and
gently stirred (final lipid concentration ~31 µM). CF efflux was monitored at λem 517 nm (λex 492
nm) as a function of time after addition of the desired volume of peptide (1 or 20 mg/mL stock in mQ
water) at t = 45 s. The following final concentrations of peptide were monitored: 5, 10, 15, 20, 25 and
200 µg/mL. Finally, 30 µL of 1.2% Triton X -100 was added to the cuvette (0.012% final
concentration) at t = 285 s to reach the maximum intensity. Fluorescence intensities were then
Figure S1: Vesicle leakage experiments using 5(6)-carboxyfluorescein induced by peptides. EYPG and EYPC vesicles
were suspended in buffer (10 mM TRIS, 107 mM NaCl, pH 7.4) and the indicated concentration of the compound was
added after 45 sec. After 285 seconds 30 μL Triton X-100 1.2% was added for full release of fluorescein. […]

In experiment [2] the test system is S. aureus COL (clinical isolate of MRSA). It is filed as cell-based. On the procedure:
as §1, §2, §3

A further experiment concerns K. pneumoniae Oxa-48. In kind it is cell-based. On the procedure:
as §1, §2, §3

Another experiment has as its system S. aureus Newman. In kind it is cell-based. As for the experimental part: as §1, §2, §3
The test system of a further experiment is A. baumannii BAL225. In kind it is cell-based. As for the experimental part: as §1, §2, §3
For the next experiment, the system named is E. coli W3110. In kind it is cell-based. As for the experimental part: as §1, §2, §3
Another experiment deals with B. subtilis BR151. In kind it is cell-based, Bacillus subtilis. Conditions: BR151, 20 h. As for the experimental part:
as §1, §2
For each test, two columns of the plate were kept for sterility control (MH medium only), growth control (MH medium with bacterial inoculum, no compound). The positive control, Polymyxin B (starting with a concentration of 64 µg/mL) in MH medium with bacterial inoculums, was introduced in the two first lines of the plate. […]
conditions. 15 μL of 3-(4,5-dimethylthiazol-2-yl)-2,5-diphenyltetrazolium bromide (MTT)3 (1 mg/mL in sterilized milliQ deionized water) were added to each well and the plates were incubated for 20-30 minutes at room temperature. The minimal inhibitory concentration (MIC) was defined as the lowest concentration of the dendrimer that inhibits the visible growth of the tested bacteria (yellow) with the unaided eye.

Molecules are shown by their SMILES. In brackets after ≈: the same amount, converted by molar mass. Peptide text beside a SMILES is read from it.

On to `Cc1c2cc3cc1CSC[C@H](NC(=O)[C@H](CCCCN)NC(=O)[C@H](CC(C)C)NC(=O)[C@H](CC(C)C)NC(=O)[C@H](CCCCN)NC(=O)[C@H](CCCCN)NC3=O)C(=O)N[C@@H](CC(C)C)C(=O)N[C@@H](CCCCN)C(=O)N[C@H](C(=O)N[C@@H](CC(C)C)C(=O)N[C@@H](CC(C)C)C(N)=O)CSC2` [bp65] (HELM PEPTIDE1{K.K.L.L.K.C.L.K.C.L.L.[am]}|CHEM1{[Cc1c(C[*:2])cc(C(=O)[*:1])cc1C[*:3]]}$PEPTIDE1,CHEM1,1:R1-1:R1|PEPTIDE1,CHEM1,6:R3-1:R2|PEPTIDE1,CHEM1,9:R3-1:R3$$$V2.0), for which, in the experiment on P. aeruginosa ZEM9A, the “MIC P. aeruginosa ZEM9A” value was above 32 µg/mL. Moreover, in the experiment on P. aeruginosa PAO1, the “MIC PAO1” value was 8 µg/mL (≈ 5.54 µM). Further, the “MIC P. aeruginosa ZEM-1A” value against P. aeruginosa ZEM-1A is 8 µg/mL (≈ 5.54 µM). Further, in experiment [1], the EYPC vesicle leakage was found to be 37% and the EYPG vesicle leakage is recorded as 34%. The “MIC S. aureus COL” value in [2] worked out at 8 µg/mL (≈ 5.54 µM). For the same compound, in the experiment with K. pneumoniae Oxa-48, the “MIC K. pneumoniae Oxa-48” value was determined as 16 µg/mL (≈ 11.1 µM). In addition, in the experiment with S. aureus Newman, the “MIC S. aureus Newman” value was 8 µg/mL (≈ 5.54 µM). In addition, the “MIC A. baumannii BAL225” value in the experiment on A. baumannii BAL225 amounted to 4 µg/mL (≈ 2.77 µM). The “MIC E. coli W3110” value with E. coli W3110 is 8 µg/mL (≈ 5.54 µM). Besides, the “MIC BR 151” value against B. subtilis BR151 is listed as 2 µg/mL (≈ 1.39 µM).

Values taken from paper PMC8637766, “A mixed chirality α-helix in a stapled bicyclic and a linear antimicrobial peptide revealed by X-ray crystallography” (RSC Chemical Biology, 2021).
